Article PMC10394516, “The pharmacokinetic profile of brensocatib and its effect on pharmacodynamic biomarkers including NE, PR3, and CatG in various rodent species” (Frontiers in Pharmacology, 2023)

Key:
Format in all cases: in vivo
PR3 [1] = assay: Bone marrow PR3 activity after repeated dosing, BALB/c mice; conditions: for Reduction of PR3 activity vs vehicle / Change From Vehicle Control (%) PR3: 7 days
Protocol: (§1) Briefly, animals were weighed and randomized into different treatment groups. In total, three different dosing levels of brensocatib were tested in each species and strain; each QD dosing level was equivalent to 1.5-times the matching daily BID dose. For BID dosing, the second daily dose was administered 8-h post the morning dose. C57BL/6 mice were dosed either BID or QD for 7 consecutive days at 0/0, 0.5/0.75, 2/3, and 20/30 mg/kg/day (BID/QD). BALB/c mice were dosed for 7 consecutive days at 0/0, 0.2/0.3, 2/3, and 20/30 mg/kg/day (BID/QD). SD rats were dosed for 9 consecutive days at 0/0, 0.2/0.3, 2/3, and 20/30 mg/kg/day (BID/QD). Wistar rats were dosed for 7 consecutive days at 0/0, 0.2/0.3, 2/3, and 20/30 mg/kg/day (BID/QD).
(§2) At the completion of the study, animals were sacrificed 16–24 h post their final dose. The hind limb bones (femurs and tibias) were collected at necropsy for bone marrow analysis of NSP activities by kinetic enzymatic assays ([Basso et al., 2022]). See section Quantification of Bone Marrow NSP Activities for details.
(§3) For the mice, each animal had the femurs and tibias of both hind limbs harvested. For the rat, the femur and tibia from a single hind limb per animal was harvested. Bones were kept on wet ice until processing for bone marrow collection. In brief, bone cutters were used to cut the epiphysis (knobby ends) off the long bones to expose the bone marrow filled cavity. Each bone cavity was then flushed with 5 mL/bone (mouse) or 10 mL/bone (rat) of ice-cold RPMI media through a […] and collected in a 50-mL conical tube. Cells were spun down at 2,500 × g at 4°C for 5 min and the supernatant was aspirated. After which, bone marrow cells were lysed with 1X red blood cell (RBC) lysis buffer (Abcam, ab204733) to eliminate contaminating RBCs and washed with PBS to remove any residual RBC lysis buffer. The resulting white blood cells (WBC) were subsequently lysed with 1% (v/v) Triton X-100 in PBS. Lysates were added to 96-well plates and stored at −80°C until NSP analyses.
(§4) Bone marrow lysates prepared as described above were diluted and plated onto 96-well assay plates to quantify NSP activities as described previously ([Basso et al., 2022]). Briefly, peptide substrates for NE (N-Methoxysuccinyl-Ala-Ala-Pro-Val-7-amido-4-methylcoumarin; Sigma; St. Louis, MO; Excitation/Emission at 350/450 nm), PR3 ((7-Methoxycoumarin-4-yl)acetyl-lysyl-(picolinoyl)-Tyr-Asp-Ala-Lys-Gly-Asp-N-3-(2-4-dinitrophenyl)-2-3-diaminopropyonyl-NH2); GenScript; Piscataway, NJ; Excitation/Emission at 340/430 nm), and CatG (N-Succinyl-Ala-Ala-Pro-Phe p nitroanilide; Sigma; Absorbance at 405 nm) were added at a final assay concentration of 100 μM, 40 μM, and 200 μM, respectively, and either fluorescence or absorbance was quantified using a Synergy microplate reader (BioTek; Winooski, VT). The specific NSP activity in each sample was calculated as the total activity minus the activity in the presence of a specific NSP inhibitor (if used), including elastase inhibitor (Abcam) for NE, sivelestat (Abcam) for PR3, and cathepsin G inhibitor I (Cayman Chemical; Ann Arbor, MI) for CatG. NSP concentrations were interpolated based on their activities relative to the standard curves created using active human NE protein (Sigma), active human PR3 protein (Sigma), and active human CatG protein (Sigma), respectively. Due to unavailability of commercial mouse and/or rat NE, PR3, and CatG proteins, the corresponding human proteins were used instead since their catalytic ability is considered to be conserved across species. A portion of each cell lysate sample was retained for protein quantification using a Pierce™ BCA Protein Assay Kit (Thermo Fisher). The NSP activities were normalized for the cell lysate protein concentrations.
(§5) The Pierce™ BCA Protein Assay Kit was used to measure the total protein of the samples after lysis to allow for subsequent normalization. […]

CatG = assay: Bone marrow CatG activity after repeated dosing, BALB/c mice; conditions: for Reduction of CatG activity vs vehicle / Change From Vehicle Control (%) CatG: 7 days
Protocol: as §1, §2, §3, §4, §5

PR3 [2] = assay: PD onset study, bone marrow PR3 activity, C57BL/6 mice; conditions: for Percent change from vehicle PR3: bone marrow, 5 mg/kg BID oral
Protocol: A 14-day PD onset study was performed in female C57BL/6 mice dosed BID. Mice were dosed by oral gavage either with vehicle (0 mg/kg) or 5 mg/kg brensocatib (BID; 10 mg/kg/day) for 1, 4, 7, 10, or 14 consecutive days. Plasma was collected from animals during the first 24 h of dosing at 1, 2, 8, 9, 10, and 24 h post the initial dose. Note the 8- and 24-h plasma samples were prior to the afternoon dose and the second day dose (if applicable), respectively. Plasma was used for PK analysis via LC-MS/MS. On prescribed days, animals were sacrificed 16 h post final dose, and the hind bones (femurs and tibias) were collected at necropsy for bone marrow analysis of NSP activities by kinetic enzymatic assays.
as §3, §4
The Pierce™ BCA Protein Assay Kit was used to measure the total protein of the samples after lysis to allow for subsequent normalization. The manufacturer’s instructions for use were followed when performing this assay on a portion of the sample lysates which were diluted in PBS, the same diluent as used for preparation of the standard. Plates were read on the Biotek Synergy plate reader with Gen5 software.

[3] = BID highest dose (20 mg/kg/day)
[4] = highest dose level 20/30 (BID/QD) mg/kg/day
[5] = oral BID 0.2 mg/kg/day, 16 h post final dose
[6] = oral BID 2 mg/kg/day, 16 h post final dose
[7] = oral BID 20 mg/kg/day, 16 h post final dose
[8] = oral QD 0.3 mg/kg/day, 24 h post final dose
[9] = oral QD 3 mg/kg/day, 24 h post final dose
[10] = oral QD 30 mg/kg/day, 24 h post final dose
[11] = 5 mg/kg BID, curve fit with free min and max

## Cn1c(=O)oc2ccc(-c3ccc(C[C@@H](C#N)NC(=O)[C@@H]4CNCCCO4)cc3)cc21 [brensocatib]
PR3 [1]; [3]
  Reduction of PR3 activity vs vehicle: 70%
PR3 [1]; QD highest dose (30 mg/kg/day)
  Reduction of PR3 activity vs vehicle: 52%
PR3 [1]; [4]
  Combined BID and QD percentage reduction, PR3: 61%
PR3 [1]; [5]
  Change From Vehicle Control (%) PR3: +13% (p = 0.6435)
PR3 [1]; [6]
  Change From Vehicle Control (%) PR3: −26% (p = 0.1243)
PR3 [1]; [7]
  Change From Vehicle Control (%) PR3: −70% (p < 0.0001)
PR3 [1]; [8]
  Change From Vehicle Control (%) PR3: −7% (p = 0.9149)
PR3 [1]; [9]
  Change From Vehicle Control (%) PR3: −13% (p = 0.6769)
PR3 [1]; [10]
  Change From Vehicle Control (%) PR3: −52% (p = 0.0010)
CatG; [3]
  Reduction of CatG activity vs vehicle: 92%
CatG; QD highest dose (30 mg/kg/day)
  Reduction of CatG activity vs vehicle: 84%
CatG; [4]
  Combined BID and QD percentage reduction, CatG: 88%
CatG; [5]
  Change From Vehicle Control (%) CatG: −1% (p = 0.9993)
CatG; [6]
  Change From Vehicle Control (%) CatG: −36% (p = 0.0165)
CatG; [7]
  Change From Vehicle Control (%) CatG: −92% (p < 0.0001)
CatG; [8]
  Change From Vehicle Control (%) CatG: −2% (p = 0.9983)
CatG; [9]
  Change From Vehicle Control (%) CatG: −39% (p = 0.0058)
CatG; [10]
  Change From Vehicle Control (%) CatG: −84% (p < 0.0001)
PR3 [2]; [11]
  Onset: Maximum reduction (plateau), PR3: 76%
  Onset: Time to reach 50% reduction, PR3: 4.5 days
  Onset: Time to reach max reduction, PR3: 8.0 days
PR3 [2]; after 1 day of treatment
  Percent change from vehicle PR3: −5% (p = 0.9972)
PR3 [2]; after 4 days of treatment
  Percent change from vehicle PR3: −43% (p = 0.0236)
PR3 [2]; after 7 days of treatment
  Percent change from vehicle PR3: −85% (p < 0.0001)
PR3 [2]; after 10 days of treatment
  Percent change from vehicle PR3: −71% (p < 0.0001)
PR3 [2]; after 14 days of treatment
  Percent change from vehicle PR3: −81% (p < 0.0001)
